# Experimental data taken from patent US20060165656A1, “Medicinal preparation having chemotherapeutic encapsulated therein” (priority 2002, published 2006).
# Where two headings read alike, the source gives them in different places.
# Key:
# [1] = system: Mouse colon cancer-derived CT-26 cells transplanted in BALB/cAnNCrj male mice; assay: In vivo experiment (2): tumor volume and weight, HVJ-E/BLM into the tumor with or without intraperitoneal CDDP; details: Day 21, physiological saline into the tumor
# [2] = system: mouse colon carcinoma cell CT26; details: 30 minutes at 37° C., counted two days later, HCl
# Experimental: A microtube containing the sample was centrifuged at 15,000 rpm for 15 minutes at 4° C. to give the HVJ-E vector as a precipitate, and the supernatant was removed. […] Further, 2 μl of 3% Triton-X100 was added thereto to prepare a sample containing Triton-X100 at a final concentration of 0.1%, which was then left on ice for 15 minutes. Thereafter, 500 μl PBS solution was added thereto. The microtube was centrifuged at 15,000 rpm for 15 minutes at 4° C., and the supernatant was removed without removing the precipitate, and 500 μl PBS solution was added again to the precipitate. The microtube was centrifuged again at 15,000 rpm for 15 minutes at 4° C., and the supernatant was removed without removing the precipitate.
# The resulting precipitate was suspended in 180 μl PBS, and the resulting sample solution was pipetted in a volume of 30 μl/microtube into 6 microtubes. Five microlitters of protamine sulfate solution prepared at 5 mg/ml and 500 μl DMEM solution (Dulbecco's modified Eagle medium) were added to each tube.
# The above sample solution was added to mouse colon carcinoma cell CT26 prepared on a 6-well plate. The plate was kept for 30 minutes in an incubator at 37° C., and then the medium was exchanged with 500 μl medium (DMEM containing 10% FCS). The cells were incubated for 2 days in a CO2 incubator at 37° C. Two days later, the number of viable cells was counted to evaluate the anticancer effect.
Molecule,tumor weight ([1]; CDDP 0.2 mg/body i.p.) [mg],"average tumor volume ([1]; CDDP 0.2 mg/body once intraperitoneally, 10 mice) [mm^3]",tumor weight ([1]; CDDP 0.4 mg/body i.p.) [mg],"average tumor volume ([1]; CDDP 0.4 mg/body once intraperitoneally, 3 mice) [mm^3]",number of viable cells (Mean) ([2]; 1/50 bleomycin group: bleomycin 50 μg/DMEM 500 μl/well),number of viable cells (Mean) ([2]; 1/500 bleomycin group: bleomycin 5 μg/DMEM 500 μl/well),"number of viable cells (Mean) ([2]; 1/500 bleomycin group: bleomycin 5 μg/DMEM 500 μl/well, listed as Bleomycin)","number of viable cells (Mean) ([2]; 1/5,000 bleomycin group: bleomycin 500 ng/DMEM 500 μl/well)","number of viable cells (Mean) ([2]; 1/5,000 bleomycin group: bleomycin 500 ng/DMEM 500 μl/well, listed as Bleomycin)"
"[NH2][Pt]([NH2])([Cl])[Cl] [CDDP, cisplatin]",1619.79,1720.14,1164.13,1367.62,,,,,
bleomycin HCl,,,,,81800,"164,600",164600,"196,800",196800
